Assay results taken from US20080262031A1, “4-Aminoquinoline Derivatives as Antimalarials” (CTG PHARMA S.R.L., priority 2005, published 2008).
Converted amounts (≈) assume the structure as drawn. Read-outs that look alike come from different tables or passages of the source.

Assays:
[1] = test system: chloroquine-sensitive (CQ-S) Plasmodium falciparum strain D10; experiment: in vitro antimalarial activity on chloroquine-sensitive strain D10; type: cell-based
[2] = test system: chloroquine-resistant (CQ-R) Plasmodium falciparum strain W2; experiment: in vitro antimalarial activity on chloroquine-resistant strain W2; type: cell-based
[3] = P. falciparum strain D10, chloroquine-sensitive, n = 4 ± SD, read-out: D10 (CQ-S) IC50
[4] = P. falciparum strain W2, chloroquine-resistant, n = 4 ± SD, read-out: W2 (CQ-R) IC50

SMILES	IC50 ([1]; D10, read-out: D10 (CQ-S) IC50) [µg/mL]	IC50 ([2]; W2, read-out: W2 (CQ-R) IC50) [µg/mL]	IC50 [1, 3] [µg/mL]	IC50 [2, 4] [µg/mL]
CCN(CC)CCCC(C)Nc1ccnc2cc(Cl)ccc12 (stereo not shown) [Chloroquine, chloroquine, reference compound]	0.0097 ± 0.0036 (≈ 0.0303 µM)	0.17 ± 0.0413 (≈ 0.532 µM)	–	–
Clc1ccc2c(NCCC34CCCN3CCC4)ccnc2c1 [Example 1, N-(7-chloro-quinolin-4-yl)-2-(tetrahydropyrrolizin-7a-yl)-ethylamine]	–	–	0.0017 ± 0.0014 (≈ 0.00538 µM)	0.0173 ± 0.0024 (≈ 0.0548 µM)
Clc1ccc2c(NCC34CCCN3CCC4)ccnc2c1 [Example 2, N-(7-chloro-quinolin-4-yl)-(tetrahydropyrrolizin-7a-yl)-methylamine]	–	–	0.0092 ± 0.0022 (≈ 0.0305 µM)	0.0087 ± 0.0035 (≈ 0.0288 µM)
Oc1cc(Nc2ccnc3cc(Cl)ccc23)ccc1CNC[C@@H]1CCCN2CCCC[C@H]12 [Example 3]	–	–	0.0103 ± 0.0019 (≈ 0.0228 µM)	0.0114 ± 0.0021 (≈ 0.0253 µM)
Oc1cc(Nc2ccnc3cc(Cl)ccc23)ccc1CNCCC12CCCN1CCC2 [Example 4]	–	–	0.0172 ± 0.0019 (≈ 0.0394 µM)	< 0.08
